{"source": "PubChem BioAssay (NCI)", "note": "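Assay format: 96-well plates, 48-hour exposure. TGI: concentration producing complete growth inhibition.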 Where a SMILES comes first, the peptide text is derived from it. The star is where a group is joined. Boc = CC(C)(C)OC(=O)*; Bn = c1ccc(C*)cc1"}
{"tested_on": "NCI-H522 lung", "test": "DTP human tumour cell line panel, 48 h", "units": {"TGI": "µM"}}
{"smiles": "CCN(CC)Cc1ccc(C(=S)Nc2ccc(Cl)cc2)s1", "TGI": 25}
{"smiles": "COC(=O)C(CC(C)C)NC(=O)C(C)NC(=O)C(Cc1ccc(OCc2ccccc2)cc1)NC(=O)C(COCc1ccccc1)NC(=O)OC(C)(C)C", "note": "(stereo not drawn) (Boc-S(Bn)Y(Bn)AL-OMe; configuration not given here)", "TGI": "> 100"}
{"smiles": "CCn1c(-c2ccccc2)cs/c1=N\\C(P(=O)(O)O)P(=O)(O)O", "TGI": "> 100"}
{"smiles": "Cc1ccc(-n2cnc(C(=N)C#N)c2N)cc1", "TGI": "> 100"}
{"smiles": "COC(=O)/C=C(\\C(=O)OC)C1C(=O)Oc2c(C)c(=O)c3ccccc3n21", "note": "(stereo not drawn)", "TGI": "> 100"}
{"smiles": "O=C(O)c1nnsc1-c1ccc(-c2snnc2C(=O)O)cc1", "TGI": "> 100"}
{"smiles": "CC(=O)c1ccccc1NP(=O)(c1ccccc1)c1ccccc1", "TGI": "> 100"}
{"tested_on": "EKVX NSCLC", "test": "DTP human tumour cell line panel, 48 h", "units": {"TGI": "µM"}}
{"smiles": "CCN(CC)Cc1ccc(C(=S)Nc2ccc(Cl)cc2)s1", "TGI": 19.4}
{"smiles": "COC(=O)C(CC(C)C)NC(=O)C(C)NC(=O)C(Cc1ccc(OCc2ccccc2)cc1)NC(=O)C(COCc1ccccc1)NC(=O)OC(C)(C)C", "note": "(stereo not drawn) (Boc-S(Bn)Y(Bn)AL-OMe; configuration not given here)", "TGI": "> 100"}
{"smiles": "CCn1c(-c2ccccc2)cs/c1=N\\C(P(=O)(O)O)P(=O)(O)O", "TGI": "> 100"}
{"smiles": "Cc1ccc(-n2cnc(C(=N)C#N)c2N)cc1", "TGI": "> 100"}
{"smiles": "COC(=O)/C=C(\\C(=O)OC)C1C(=O)Oc2c(C)c(=O)c3ccccc3n21", "note": "(stereo not drawn)", "TGI": "> 100"}
{"smiles": "O=C(O)c1nnsc1-c1ccc(-c2snnc2C(=O)O)cc1", "TGI": "> 100"}
{"smiles": "CC(=O)c1ccccc1NP(=O)(c1ccccc1)c1ccccc1", "TGI": "> 100"}
{"tested_on": "SR leukemia", "test": "DTP human tumour cell line panel, 48 h", "units": {"TGI": "µM"}}
{"smiles": "CCN(CC)Cc1ccc(C(=S)Nc2ccc(Cl)cc2)s1", "TGI": 24.7}
{"smiles": "COC(=O)C(CC(C)C)NC(=O)C(C)NC(=O)C(Cc1ccc(OCc2ccccc2)cc1)NC(=O)C(COCc1ccccc1)NC(=O)OC(C)(C)C", "note": "(stereo not drawn) (Boc-S(Bn)Y(Bn)AL-OMe; configuration not given here)", "TGI": "> 100"}
{"smiles": "CCn1c(-c2ccccc2)cs/c1=N\\C(P(=O)(O)O)P(=O)(O)O", "TGI": "> 100"}
{"smiles": "Cc1ccc(-n2cnc(C(=N)C#N)c2N)cc1", "TGI": "> 100"}
{"smiles": "COC(=O)/C=C(\\C(=O)OC)C1C(=O)Oc2c(C)c(=O)c3ccccc3n21", "note": "(stereo not drawn)", "TGI": "> 100"}
{"smiles": "O=C(O)c1nnsc1-c1ccc(-c2snnc2C(=O)O)cc1", "TGI": "> 100"}
{"smiles": "CC(=O)c1ccccc1NP(=O)(c1ccccc1)c1ccccc1", "TGI": "> 100"}
{"tested_on": "NCI-H23 lung", "test": "DTP human tumour cell line panel, 48 h", "units": {"TGI": "µM"}}
{"smiles": "CCN(CC)Cc1ccc(C(=S)Nc2ccc(Cl)cc2)s1", "TGI": 9.34}
{"smiles": "COC(=O)C(CC(C)C)NC(=O)C(C)NC(=O)C(Cc1ccc(OCc2ccccc2)cc1)NC(=O)C(COCc1ccccc1)NC(=O)OC(C)(C)C", "note": "(stereo not drawn) (Boc-S(Bn)Y(Bn)AL-OMe; configuration not given here)", "TGI": "> 100"}
{"smiles": "CCn1c(-c2ccccc2)cs/c1=N\\C(P(=O)(O)O)P(=O)(O)O", "TGI": "> 100"}
{"smiles": "Cc1ccc(-n2cnc(C(=N)C#N)c2N)cc1", "TGI": "> 100"}
{"smiles": "COC(=O)/C=C(\\C(=O)OC)C1C(=O)Oc2c(C)c(=O)c3ccccc3n21", "note": "(stereo not drawn)", "TGI": "> 100"}
{"smiles": "O=C(O)c1nnsc1-c1ccc(-c2snnc2C(=O)O)cc1", "TGI": "> 100"}
{"smiles": "CC(=O)c1ccccc1NP(=O)(c1ccccc1)c1ccccc1", "TGI": "> 100"}
{"tested_on": "SK-MEL-5 melanoma", "test": "DTP human tumour cell line panel, 48 h", "units": {"TGI": "µM"}}
{"smiles": "CCN(CC)Cc1ccc(C(=S)Nc2ccc(Cl)cc2)s1", "TGI": 16.9}
{"smiles": "COC(=O)C(CC(C)C)NC(=O)C(C)NC(=O)C(Cc1ccc(OCc2ccccc2)cc1)NC(=O)C(COCc1ccccc1)NC(=O)OC(C)(C)C", "note": "(stereo not drawn) (Boc-S(Bn)Y(Bn)AL-OMe; configuration not given here)", "TGI": "> 100"}
{"smiles": "CCn1c(-c2ccccc2)cs/c1=N\\C(P(=O)(O)O)P(=O)(O)O", "TGI": "> 100"}
{"smiles": "Cc1ccc(-n2cnc(C(=N)C#N)c2N)cc1", "TGI": "> 100"}
{"smiles": "COC(=O)/C=C(\\C(=O)OC)C1C(=O)Oc2c(C)c(=O)c3ccccc3n21", "note": "(stereo not drawn)", "TGI": "> 100"}
{"smiles": "O=C(O)c1nnsc1-c1ccc(-c2snnc2C(=O)O)cc1", "TGI": "> 100"}
{"smiles": "CC(=O)c1ccccc1NP(=O)(c1ccccc1)c1ccccc1", "TGI": "> 100"}
{"tested_on": "OVCAR-8 ovarian", "test": "DTP human tumour cell line panel, 48 h", "units": {"TGI": "µM"}}
{"smiles": "CCN(CC)Cc1ccc(C(=S)Nc2ccc(Cl)cc2)s1", "TGI": 18.2}
{"smiles": "COC(=O)C(CC(C)C)NC(=O)C(C)NC(=O)C(Cc1ccc(OCc2ccccc2)cc1)NC(=O)C(COCc1ccccc1)NC(=O)OC(C)(C)C", "note": "(stereo not drawn) (Boc-S(Bn)Y(Bn)AL-OMe; configuration not given here)", "TGI": "> 100"}
{"smiles": "CCn1c(-c2ccccc2)cs/c1=N\\C(P(=O)(O)O)P(=O)(O)O", "TGI": "> 100"}
{"smiles": "Cc1ccc(-n2cnc(C(=N)C#N)c2N)cc1", "TGI": "> 100"}
{"smiles": "COC(=O)/C=C(\\C(=O)OC)C1C(=O)Oc2c(C)c(=O)c3ccccc3n21", "note": "(stereo not drawn)", "TGI": "> 100"}
{"smiles": "O=C(O)c1nnsc1-c1ccc(-c2snnc2C(=O)O)cc1", "TGI": "> 100"}
{"smiles": "CC(=O)c1ccccc1NP(=O)(c1ccccc1)c1ccccc1", "TGI": "> 100"}
{"tested_on": "HOP-62 NSCLC", "test": "DTP human tumour cell line panel, 48 h", "units": {"TGI": "µM"}}
{"smiles": "CCN(CC)Cc1ccc(C(=S)Nc2ccc(Cl)cc2)s1", "TGI": 32.1}
{"smiles": "COC(=O)C(CC(C)C)NC(=O)C(C)NC(=O)C(Cc1ccc(OCc2ccccc2)cc1)NC(=O)C(COCc1ccccc1)NC(=O)OC(C)(C)C", "note": "(stereo not drawn) (Boc-S(Bn)Y(Bn)AL-OMe; configuration not given here)", "TGI": "> 100"}
{"smiles": "CCn1c(-c2ccccc2)cs/c1=N\\C(P(=O)(O)O)P(=O)(O)O", "TGI": "> 100"}
{"smiles": "Cc1ccc(-n2cnc(C(=N)C#N)c2N)cc1", "TGI": "> 100"}
{"smiles": "COC(=O)/C=C(\\C(=O)OC)C1C(=O)Oc2c(C)c(=O)c3ccccc3n21", "note": "(stereo not drawn)", "TGI": "> 100"}
{"smiles": "O=C(O)c1nnsc1-c1ccc(-c2snnc2C(=O)O)cc1", "TGI": "> 100"}
